Measured values from paper PMC9552116 (Biochemistry and Biophysics Reports, 2022).
Bridge positions count the residues as written; N and C are the ends. Square brackets hold non-standard residues; d marks the D form. Peptide text beside a SMILES is read from it. * marks the point of attachment. Biotin = O=C1N[C@H]2[C@H](CS[C@H]2CCCCC(=O)*)N1; Nle = CCCC[C@H](N)C(=O)O

Key:
[1] = biological target: human LRP1(CL3)-Fc (Homo sapiens, UniProt Q07954); test: Cell-free ELISA, binding of biotinylated peptide to captured LRP1; details: Fig. 3, n = 3
[2] = biological target: human LRP1(CL2)-Fc (Homo sapiens, UniProt Q07954); test: as above; details: Fig. 3, n = 3
[3] = biological target: human LRP1(CL4)-Fc (Homo sapiens, UniProt Q07954); test: as above; details: Supplementary Fig. S1
[4] = test system: in vitro rat BBB model kit (RBT-24H); test: BBB permeability in in vitro rat BBB model; assay type: in vitro ADME; details: 1 μM input, 30 min, 37 °C, fluorescence, n = 1
[5] = test system: LRP1(CL2); details: ref [18]; cited from earlier work
[6] = test system: LRP1; details: read-out: LRP1-binding EC50; ref [18]; cited from earlier work

Compound	binding to LRP1(CL3) [1]	binding to LRP1(CL2) [2]	further results
CCCC[C@H](NC(=O)[C@H](CCC(=O)O)NC(=O)[C@H](C)NC(=O)[C@H](CC(C)C)NC(=O)[C@H](CCCC)NC(=O)[C@H](Cc1ccc(O)cc1)NC(=O)[C@H](CCCCN)NC(=O)[C@H](Cc1ccc(O)cc1)NC(=O)[C@@H](NC(=O)[C@H](CS)NC(=O)[C@@H]1CCCN1C(=O)[C@@H](NC(=O)CNC(=O)[C@H](CCCCNC(=O)CCCC[C@@H]1SC[C@@H]2NC(=O)N[C@@H]21)NC(C)=O)[C@@H](C)O)[C@@H](C)O)C(=O)N[C@@H](CS)C(=O)O [Biotin-KS-487(linear)] (Ac-K(Biotin)GTPCTYKY[Nle]LAE[Nle]C-OH)	no binding or slight binding	no binding or slight binding	–
CCCC[C@@H]1NC(=O)[C@H](CCC(=O)O)NC(=O)[C@H](C)NC(=O)[C@H](CC(C)C)NC(=O)[C@H](CCCC)NC(=O)[C@H](Cc2ccc(O)cc2)NC(=O)[C@H](CCCCN)NC(=O)[C@H](Cc2ccc(O)cc2)NC(=O)[C@H]([C@@H](C)O)NC(=O)[C@@H](NC(=O)[C@@H]2CCCN2C(=O)[C@@H](NC(=O)CNC(=O)[C@H](CCCCNC(=O)CCCC[C@@H]2SC[C@@H]3NC(=O)N[C@@H]32)NC(C)=O)[C@@H](C)O)CSSC[C@@H](C(=O)O)NC1=O [Biotin-KS-487] (Ac-K(Biotin)GTPCTYKY[Nle]LAE[Nle]C-OH; disulfide 5-15)	no binding or slight binding	no binding or slight binding	–
CSCC[C@@H]1NC(=O)[C@H](CCC(=O)O)NC(=O)[C@H](C)NC(=O)[C@H](CC(C)C)NC(=O)[C@H](CCSC)NC(=O)[C@H](Cc2ccc(O)cc2)NC(=O)[C@H](CCCCN)NC(=O)[C@H](Cc2ccc(O)cc2)NC(=O)[C@H]([C@@H](C)O)NC(=O)[C@@H](NC(=O)[C@@H]2CCCN2C(=O)[C@@H](NC(=O)CNC(=O)[C@H](CCCCNC(=O)CCCC[C@@H]2SC[C@@H]3NC(=O)N[C@@H]32)NC(C)=O)[C@@H](C)O)CSSC[C@@H](C(=O)O)NC1=O [Biotin-Pep0] (Ac-K(Biotin)GTPCTYKYMLAEMC-OH; disulfide 5-15; N-terminus and C-terminus assumed)	–	–	binding activity to LRP1(CL4) [3]: moderate binding activity
C[C@@H](O)[C@H](NC(=O)CNC(=O)[C@@H](N)CCCCNC(=O)c1ccc2c(c1)C(=O)OC21c2ccc(O)cc2Oc2cc(O)ccc21)C(=O)N[C@@H](Cc1ccccc1)C(=O)N[C@@H](Cc1ccccc1)C(=O)N[C@@H](Cc1ccc(O)cc1)C(=O)NCC(=O)NCC(=O)N[C@@H](CO)C(=O)N[C@@H](CCCNC(=N)N)C(=O)NCC(=O)N[C@@H](CCCCN)C(=O)N[C@@H](CCCNC(=N)N)C(=O)N[C@@H](CC(N)=O)C(=O)N[C@@H](CC(N)=O)C(=O)N[C@@H](Cc1ccccc1)C(=O)N[C@@H](CCCCN)C(=O)N[C@H](C(=O)N[C@@H](CCC(=O)O)C(=O)N[C@@H](CCC(=O)O)C(=O)N[C@@H](Cc1ccc(O)cc1)C(=O)O)[C@@H](C)O [Pep 5FAM-ANG2]	–	–	% input crossed to the brain side [4]: below 0.5%
TWPKHFDKHTFYSILKLGKH-OH [Pep L57]	–	–	cross-reactivity to LRP1(CL2) [5]: cross-reactivity; EC50 [6]: 45 nM
